# Experimental data as given in patent US20090227619A1, “Harmine derivatives, intermediates used in their preparations, preparation processes and use therefo” (priority 2003, published 2009).
# Like-named read-outs stand apart in the source and are kept apart here.
# Assays:
# HepG2 = test: In vitro cytotoxicity, IC50 by MTT method, HepG2; assay type: cell-based, human; settings: HepG2 cell strain, read-out: IC50 HepG2
# How it was run: (§1)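 Cells in RPMI1640 with 10% FBS at 37° C, 5% CO2 were seeded at 10^5/ml and exposed to a compound concentration gradient for 48 h, at least three replicates, solvent controls.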
# PLA-801 = test: In vitro cytotoxicity, IC50 by MTT method, PLA-801; assay type: cell-based; settings: PLA-801 cell strain; read-out: IC50 PLA-801
# How it was run: as §1
# Bel-7402 = test: In vitro cytotoxicity, IC50 by MTT method, Bel-7402; assay type: cell-based; settings: Bel7402 cell strain, read-out: IC50 Bel7402
# How it was run: as §1
# BGC-823 = test: In vitro cytotoxicity, IC50 by MTT method, BGC-823; assay type: cell-based; settings: BGC823 cell strain, read-out: IC50 BGC823
# How it was run: as §1
# Hela = test: In vitro cytotoxicity, IC50 by MTT method, Hela; assay type: cell-based; settings: Hela cell strain, read-out: IC50 Hela
# How it was run: as §1
# Lovo = test: In vitro cytotoxicity, IC50 by MTT method, Lovo; assay type: cell-based; settings: Lovo cell strain, read-out: IC50 Lovo
# How it was run: as §1
# NIH3T3 = test: In vitro cytotoxicity, IC50 by MTT method, NIH3T3; assay type: cell-based; settings: NIH3T3 cell strain, read-out: IC50 NIH3T3
# How it was run: as §1
# Kunming mice = settings: for Death rate: single i.p.
# Procedure: (§2) Five grades of dosages for each sample according to the results of the preliminary test, each dosage being 0.8 larger than the previous one
# (§3) During the experiment, each sample was added a small amount of Tween-80 to facilitate dissolution after the sample was weighed, and then 0.5% CMC-Na solution was gradually added to achieve the desired concentration. The experimental volume was 0.5 ml/20 g mouse.
# (§4) Single injection via intraperitoneal (i.p.) to different groups mice.
# (§5) Kunming mice were divided into different groups randomly according to their sex. The medicament was intraperitoneally administered to each group of mice according to the dosage setting. After the administration of the medicaments, mice were observed continuously for the first 2 h for any gross behavioral changes and deaths. Dead animals were dissected and examined for any possible organ damage. […] Conditions of animals died within two week were recorded. After two weeks, all survived animals were sacrificed and checked macroscopically for possible damage to the heart, liver, kidneys and so on. Viscera that had substantive pathological changes were pathologically examined.
# Lewis lung cancer = settings: for Body weight of the animals, end, First time / Body weight of the animals, end, Second time / Body weight of the animals, beginning, First time / Inhibition rate, First time / Weight of the tumor X ± SD, First time / Body weight of the animals, beginning, Second time / Inhibition rate, Second time / Weight of the tumor X ± SD, Second time / Inhibition rate (%) Lewis cancer: Lewis lung cancer; for Body weight of the animals, end, First time / Body weight of the animals, end, Second time: ip × 10qd; for Inhibition rate (%) Lewis cancer: comparison table 43, in vivo;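 on all read-outs here: mice implanted subcutaneously in the axilla with Lewis lung tumor cells, treated starting the following day, killed roughly three weeks after implantation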
# From the text: (§6) There was one group of 8 to 10 mice C57BL/6 and Kunming mice for the anti-tumor tests and two groups of mice for negative control.
# (§7) (3) Sources of tumors: Lewis lung cancer cells and S180 sarcoma in mice, which were sub-cultured and maintained by Pharmacological Center of Shanghai Pharmaceutical Industrial Research Institute.
# (§8) All samples were weighed and added a small amount of Tween-80 to facilitate dissolution during the experiment, and then 0.5% CMC-Na solution was gradually added to achieve the desired concentration. The volume for experiment was 0.5 ml/20 g mouse.
# (§9) The medicaments were intraperitoneally administered once a day continuously for 10 days.
# (§10) For the negative control group, a vehicle of the same volume was intraperitoneally administered once a day continuously for 10 days. For the positive control group, CTX was administered in the dosage of 30 mg/kg once a day continuously for 7 days.
# (§11) In vivo anti-tumor subcutaneous vaccination in the axilla was employed. Wildly grown tumor source was taken under sterile conditions to form a cell suspension of about 1×10^7 ml by homogenization method. For a corresponding mouse host, the suspension was injected in the axilla in an amount of 0.2 ml/mouse. The next day, the medicaments were administered according to the design of the tests. About three weeks later, all the groups of animals were executed. The tumors were taken from the animals and weighed. The inhibition rate of tumors was calculated according to the following formula:
# (§12) T: average tumor weight of treated group; C: average tumor weight of negative control group.
# S180 sarcoma = settings: S180 sarcoma; for Body weight of the animals, beginning, First time / Body weight of the animals, end, First time / Inhibition rate, First time / Weight of the tumor X ± SD, First time / Body weight of the animals, beginning, Second time / Body weight of the animals, end, Second time / Inhibition rate, Second time: ip × 10qd; for Inhibition rate (%) S180 sarcomata: comparison table 43, in vivo
# From the text: as §6, §7, §8, §9, §10, §11, §12
# in vivo = settings: both, mouse, ip
# Procedure: as §2, §3, §4, §5
# CT-DNA = test: UV absorption spectrum method with CT-DNA; assay type: binding; settings: CT-DNA 40 ug/ml, compound 20 uM, 37° C. for 2 h, OD at 260 nm
# Procedure: Compounds to be tested (20 uM) were added into the PE buffer solution, and its scan curve was identified by the spectrograph at a wavelength of from 200 to 400 nm. CT-DNA (40 ug/ml) and compounds to be tested (20 uM) were added into the PE buffer solution. The mixture was cultured at 37° C. for 2 h, and its scan curve was identified by the UV spectrograph at a wavelength of from 200 to 400 nm. […] After that, the OD value at 260 nm of the scan curve of the medicaments tested and that of the CT-DNA mixture OD value at 260 nm of the scan curve were calculated and compared to determine the influences of the medicaments tested on the UV absorption spectrum of the DNA molecules.
# [1] = Solubility (physico-chemical data tables); settings: qualitative; Table 12, 3,9-disubstituted β-carboline derivatives
# [2] = 50% male 50% female mice, 240 mg/kg
# [3] = 50% male 50% female mice, 300 mg/kg
# 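Wherever Death rate is given: acute toxicity in Kunming mice grouped by sex, one intraperitoneal dose at five graded levels in Tween-80 plus 0.5% CMC-Na, deaths monitored over two weeks.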
# 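Wherever LD50 is given: acute toxicity in Kunming mice grouped by sex, one intraperitoneal dose at five graded levels in Tween-80 plus 0.5% CMC-Na, deaths monitored over two weeks.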
# 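Wherever MTD is given: acute toxicity in Kunming mice grouped by sex, one intraperitoneal dose at five graded levels in Tween-80 plus 0.5% CMC-Na, deaths monitored over two weeks.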
smiles,measurement,setting,value
"CCOC(=O)Nc1cc2c3ccccc3n(Cc3ccccc3)c2cn1 [Compound 55, 3-[(ethoxycarbonyl)amino]-9-benzyl-β-carboline]",IC50,HepG2; Homo sapiens,> 3000 µM
same,IC50,PLA-801,520 µM
same,IC50,"Bel-7402; Homo sapiens, Bel-7402",2440 µM
same,IC50,"BGC-823; Homo sapiens, BGC-823",> 3000 µM
same,IC50,Hela; Homo sapiens,> 3000 µM
same,IC50,Lovo; Homo sapiens,2130 µM
same,IC50,NIH3T3; Mus musculus,1790 µM
same,Death rate,Kunming mice; [2],0
same,Death rate,Kunming mice; [3],50
same,Death rate,"Kunming mice; female mice, 240 mg/kg",0
same,Death rate,"Kunming mice; female mice, 300 mg/kg",60
same,Death rate,"Kunming mice; male mice, 240 mg/kg",0
same,Death rate,"Kunming mice; male mice, 300 mg/kg",40
same,Anti-tumor activity compared with harmine (compound 1),"Lewis lung cancer; Lewis lung cancer in mice, among 22 compounds tested",a little worse than or equivalent to that of harmines
same,"Body weight of the animals, end, First time",Lewis lung cancer; Dosage 50 (mg/ml),23.8 g
same,"Body weight of the animals, end, Second time",Lewis lung cancer; Dosage 50 (mg/ml),24.5 g
same,"Body weight of the animals, beginning, First time","Lewis lung cancer; Dosage 50, ip × 10qd",18.7 g
same,"Inhibition rate, First time","Lewis lung cancer; Dosage 50, ip × 10qd",21.91%
same,"Weight of the tumor X ± SD, First time","Lewis lung cancer; Dosage 50, ip × 10qd",1.96 ± 0.12 g
same,"Body weight of the animals, beginning, Second time","Lewis lung cancer; Dosage 50, ip × 10qd",19.6 g
same,"Inhibition rate, Second time","Lewis lung cancer; Dosage 50, ip × 10qd",24.58%
same,"Weight of the tumor X ± SD, Second time","Lewis lung cancer; Dosage 50, ip × 10qd",1.78 ± 0.19 g
same,"Body weight of the animals, end, First time",Lewis lung cancer; Dosage 100 (mg/ml),23.5 g
same,"Body weight of the animals, end, Second time",Lewis lung cancer; Dosage 100 (mg/ml),23.9 g
same,"Body weight of the animals, beginning, First time","Lewis lung cancer; Dosage 100, ip × 10qd",19.1 g
same,"Inhibition rate, First time","Lewis lung cancer; Dosage 100, ip × 10qd",29.88%
same,"Weight of the tumor X ± SD, First time","Lewis lung cancer; Dosage 100, ip × 10qd",1.76 ± 0.10 g
same,"Body weight of the animals, beginning, Second time","Lewis lung cancer; Dosage 100, ip × 10qd",19.7 g
same,"Inhibition rate, Second time","Lewis lung cancer; Dosage 100, ip × 10qd",30.93%
same,"Weight of the tumor X ± SD, Second time","Lewis lung cancer; Dosage 100, ip × 10qd",1.63 ± 0.18 g
same,Inhibition rate (%) Lewis cancer,Lewis lung cancer,30.93%
same,"Body weight of the animals, beginning, First time",S180 sarcoma; Dosage 50 (mg/ml),19.8 g
same,"Body weight of the animals, end, First time",S180 sarcoma; Dosage 50 (mg/ml),27.0 g
same,"Inhibition rate, First time",S180 sarcoma; Dosage 50 (mg/ml),23.51%
same,"Weight of the tumor X ± SD, First time",S180 sarcoma; Dosage 50 (mg/ml),2.18 ± 0.23 g
same,"Body weight of the animals, beginning, Second time",S180 sarcoma; Dosage 50 (mg/ml),20.9 g
same,"Body weight of the animals, end, Second time",S180 sarcoma; Dosage 50 (mg/ml),24.8 g
same,"Inhibition rate, Second time",S180 sarcoma; Dosage 50 (mg/ml),20.00%
same,"Weight of the tumor X ± SD, Second time","S180 sarcoma; Dosage 50, ip × 10qd",2.28 ± 0.18 g
same,"Body weight of the animals, beginning, First time",S180 sarcoma; Dosage 100 (mg/ml),19.4 g
same,"Body weight of the animals, end, First time",S180 sarcoma; Dosage 100 (mg/ml),26.7 g
same,"Inhibition rate, First time",S180 sarcoma; Dosage 100 (mg/ml),29.12%
same,"Weight of the tumor X ± SD, First time",S180 sarcoma; Dosage 100 (mg/ml),2.02 ± 0.22 g
same,"Body weight of the animals, beginning, Second time",S180 sarcoma; Dosage 100 (mg/ml),20.3 g
same,"Body weight of the animals, end, Second time",S180 sarcoma; Dosage 100 (mg/ml),24.9 g
same,"Inhibition rate, Second time",S180 sarcoma; Dosage 100 (mg/ml),28.07%
same,"Weight of the tumor X ± SD, Second time","S180 sarcoma; Dosage 100, ip × 10qd",2.05 ± 0.17 g
same,Inhibition rate (%) S180 sarcomata,S180 sarcoma,29.12%
same,MTD at 2 weeks,in vivo,240 mg/kg
"O=C(O)c1cc2c3ccccc3n(CCCc3ccccc3)c2cn1 [Compound 48, 9-phenylpropyl-β-carboline-3-carboxylic acid]",IC50,HepG2; Homo sapiens,30 µM
same,IC50,PLA-801,260 µM
same,IC50,"Bel-7402; Homo sapiens, Bel-7402",50 µM
same,IC50,"BGC-823; Homo sapiens, BGC-823",30 µM
same,IC50,Hela; Homo sapiens,100 µM
same,IC50,Lovo; Homo sapiens,10 µM
same,IC50,NIH3T3; Mus musculus,30 µM
same,Death rate,Kunming mice; [2],60
same,Death rate,Kunming mice; [3],100
same,Death rate,"Kunming mice; female mice, 240 mg/kg",60
same,Death rate,"Kunming mice; female mice, 300 mg/kg",100
same,Death rate,"Kunming mice; male mice, 240 mg/kg",60
same,Death rate,"Kunming mice; male mice, 300 mg/kg",100
same,LD50,"Kunming mice; mouse, in vivo, ip",193 to 249 mg/kg
same,"Body weight of the animals, end, First time",Lewis lung cancer; Dosage 50 (mg/ml),25.3 g
same,"Body weight of the animals, end, Second time",Lewis lung cancer; Dosage 50 (mg/ml),25.0 g
same,"Body weight of the animals, beginning, First time","Lewis lung cancer; Dosage 50, ip × 10qd",20.1 g
same,"Inhibition rate, First time","Lewis lung cancer; Dosage 50, ip × 10qd",25.10%
same,"Weight of the tumor X ± SD, First time","Lewis lung cancer; Dosage 50, ip × 10qd",1.82 ± 0.10 g
same,"Body weight of the animals, beginning, Second time","Lewis lung cancer; Dosage 50, ip × 10qd",19.0 g
same,"Inhibition rate, Second time","Lewis lung cancer; Dosage 50, ip × 10qd",28.67%
same,"Weight of the tumor X ± SD, Second time","Lewis lung cancer; Dosage 50, ip × 10qd",2.09 ± 0.19 g
same,"Body weight of the animals, end, First time",Lewis lung cancer; Dosage 100 (mg/ml),24.8 g
same,"Body weight of the animals, end, Second time",Lewis lung cancer; Dosage 100 (mg/ml),25.2 g
same,"Body weight of the animals, beginning, First time","Lewis lung cancer; Dosage 100, ip × 10qd",19.8 g
same,"Inhibition rate, First time","Lewis lung cancer; Dosage 100, ip × 10qd",34.98%
same,"Weight of the tumor X ± SD, First time","Lewis lung cancer; Dosage 100, ip × 10qd",1.58 ± 0.08 g
same,"Body weight of the animals, beginning, Second time","Lewis lung cancer; Dosage 100, ip × 10qd",19.3 g
same,"Inhibition rate, Second time","Lewis lung cancer; Dosage 100, ip × 10qd",39.59%
same,"Weight of the tumor X ± SD, Second time","Lewis lung cancer; Dosage 100, ip × 10qd",1.77 ± 0.15 g
same,Inhibition rate (%) Lewis cancer,Lewis lung cancer,39.59%
same,"Body weight of the animals, beginning, First time",S180 sarcoma; Dosage 50 (mg/ml),19.4 g
same,"Body weight of the animals, end, First time",S180 sarcoma; Dosage 50 (mg/ml),24.8 g
same,"Inhibition rate, First time",S180 sarcoma; Dosage 50 (mg/ml),19.48%
same,"Weight of the tumor X ± SD, First time",S180 sarcoma; Dosage 50 (mg/ml),2.15 ± 0.39 g
same,"Body weight of the animals, beginning, Second time",S180 sarcoma; Dosage 50 (mg/ml),18.6 g
same,"Body weight of the animals, end, Second time",S180 sarcoma; Dosage 50 (mg/ml),25.8 g
same,"Inhibition rate, Second time",S180 sarcoma; Dosage 50 (mg/ml),21.85%
same,"Weight of the tumor X ± SD, Second time","S180 sarcoma; Dosage 50, ip × 10qd",2.11 ± 0.25 g
same,"Body weight of the animals, beginning, First time",S180 sarcoma; Dosage 100 (mg/ml),19.4 g
same,"Body weight of the animals, end, First time",S180 sarcoma; Dosage 100 (mg/ml),24.8 g
same,"Inhibition rate, First time",S180 sarcoma; Dosage 100 (mg/ml),31.09%
same,"Weight of the tumor X ± SD, First time",S180 sarcoma; Dosage 100 (mg/ml),1.84 ± 0.11 g
same,"Body weight of the animals, beginning, Second time",S180 sarcoma; Dosage 100 (mg/ml),18.5 g
same,"Body weight of the animals, end, Second time",S180 sarcoma; Dosage 100 (mg/ml),26.0 g
same,"Inhibition rate, Second time",S180 sarcoma; Dosage 100 (mg/ml),32.22%
same,"Weight of the tumor X ± SD, Second time","S180 sarcoma; Dosage 100, ip × 10qd",1.83 ± 0.16 g
same,Inhibition rate (%) S180 sarcomata,S180 sarcoma,32.22%
same,LD50 at 2 weeks,in vivo,219 mg/kg
"O=C(O)c1cc2c3ccccc3n(Cc3c(F)c(F)c(F)c(F)c3F)c2cn1 [Compound 49, 9-(2′,3′,4′,5′,6′-pentafluoro)benzyl-β-carboline-3-carboxylic acid]",IC50,HepG2,30 µM
same,IC50,PLA-801,90 µM
same,IC50,Bel-7402,60 µM
same,IC50,BGC-823,40 µM
same,IC50,Hela,40 µM
same,IC50,Lovo,10 µM
same,IC50,NIH3T3,20 µM
same,Influence on the UV absorption of DNA,CT-DNA,increase the UV absorption of DNA
same,Solubility,[1],soluble in DMSO
